Assay results published in US7935335B2, “Strains belonging to the genus Paenibacillus and method of controlling plant disease by using these strains or culture thereof” (Kaken Pharmaceutical Co., Ltd., priority 2004, dated 2011).

What was measured:
[1] = tested on: cucumber anthracnose fungus (Colletotrichum orbiculare); experiment: Test Example 2: control effect of purified spores on cucumber anthracnose; type: in vivo; details: 20 ppm
Description: Each of plastic pots was filled with horticultural compost and sown with cucumber (cultivar: 15 Suyo), followed by growing in a greenhouse for 20 days. The cucumber young seedling having a developed second true leaf was subjected to foliage application treatment with a spore preparation sample of strain BS-0105 obtained by formulating the bacterium of the present invention produced by the method described in each of Production Examples 4, 5, 6 and 7, by the method described in Formulation Example 1, so that the proportion of cells might be 2×10^7 CFU/mL. After the pots were allowed to stand in a dark moist chamber at 25° C. for 24 hours and then in a glass house at 25° C. for 4 days, the plants were inoculated with a suspension of cucumber anthracnose fungus conidia in distilled water (Colletotrichum orbiculare, 1×10^6 spores/ml) by spraying. The pots were allowed to stand in a dark moist chamber at 25° C. for 24 hours and then in a glass house at 25° C. for 7 days to cause the disease. Lesions in each leaf were counted and the protective value was calculated from the number of the lesions by the following equation to make a comparison with respect to control effect. Protective value={1−(number of lesions on treated plot/number of lesions on untreated plot)}×100

parsley cultured cells = experiment: Activity of inducing disease resistance: elicitor responsiveness of parsley cultured cells, phytoalexin detection by fluorescence; type: cell-based; details: 2.5 μM
Method: The activity of inducing disease resistance in plant of compound 1 and compound 2 according to the present invention was also evaluated according to the method of Siegrist, J. et al. The results are shown in Table 9.
(§1) The activity of inducing disease resistance in plant of each of compound 1 and compound 2 was evaluated in the same manner as in Evaluation Example 1 by adopting the method practiced in Evaluation Example 1, i.e., the method in which the elicitor responsiveness of parsley cultured cells was measured by the detection of phytoalexin using fluorescence.
as §1, with “inducing” for “inducing disease”, “resistance to” for “resistance in”, “plant diseases” for “plant”, “compound 3” for “compound 1”, “compound 4” for “compound 2”

[2] = tested on: cucumber anthracnose fungus (Colletotrichum orbiculare); experiment: Test Example 1: control effect of a culture of each strain on cucumber anthracnose; type: in vivo; details: cucumber first true leaf; 20 ppm
Method: Each of plastic pots was filled with horticultural compost and sown with cucumber (cultivar: Suyo), followed by growing in a greenhouse for 20 days. The cotyledon of the cucumber young seedling having a developed first true leaf was coated with 0.1 mL of whole culture of each of strains BS-0048, BS-0074, BS-0105 and BS-0277 prepared by the method described in Production Example 1. After the pots were allowed to stand in a glass house at 25° C. for 3 days, the plants were inoculated with a suspension of cucumber anthracnose fungus conidia in distilled water (Colletotrichum orbiculare, 1×10^6 spores/ml) by spraying. The pots were allowed to stand in a dark moist chamber at 25° C. for 24 hours and then in a glass house at 25° C. for 7 days to cause the disease. Lesions in the first true leaf of each seedling were counted and the protective value was calculated from the number of the lesions by the following equation to make a comparison with respect to control effect. Protective value={1−(number of lesions on treated plot/number of lesions on untreated plot)}×100

[3] = tested on: cucumber bacterial blight bacterium (Pseudomonas syringae pv. lachrymans); experiment: Test Example 3: control effect of purified spores on cucumber bacterial blight; type: in vivo; details: cucumber second true leaf; 20 ppm
[4] = tested on: Fusarium wilt of cucumber fungus (Fusarium oxysporum f. sp. cucumerium); experiment: Evaluation Example 5: control effect on Fusarium wilt of cucumber; type: in vivo; details: 20 ppm, Spray
Method: Each of plastic vats was filled with horticultural compost and sown with cucumber (cultivar: Sagamihanjiro), followed by growing in a greenhouse for 12 days. The cucumber young seedling having a developed cotyledon was subjected to foliar spray treatment with the formulation obtained in the above-mentioned preparation example, in a proportion of 1 mL per seedling. After the vats were allowed to stand in a glass house at 25° C. for 3 days, the plant foot of each plant was inoculated with 2 mL of a suspension (3×10^7 spores/mL) of conidia of Fusarium wilt of cucumber fungus (Fusarium oxysporum f. sp. cucumerium) in distilled water by drench. The vats were allowed to stand in a glass house at 25° C. for 14 days to cause the disease. The disease severity was calculated from the degree of infection and then the protective value was calculated from the disease severity values by the following equation to make a comparison with respect to control effect. […]

[5] = tested on: Pseudomonas syringae pv. lachrymans; experiment: Test Example 5: control effect of a culture broth on melon bacterial blight; type: in vivo; details: foliar spray of 2 mL of 2 ppm solution
Method: Each of nursery trays was filled with Aisai No. 1 (mfd. by Katakura Chikkarin Co., Ltd.) and a melon (cultivar: Arles) seedling was raised in each tray. In this case, a seed treatment plot was prepared by immersing melon seeds in a Petri dish containing 10 mL (10^8 spores/mL) of the culture broth of strain BS-0105 prepared in Production Example 2, followed by bacterization at 30° C. for 2 hours. After the development of a cotyledon, the seedling was potted in a 12-cm polyethylene pot filled with Aisai No. 1. When three true leaves were completely developed, the following plots were prepared: plots on which drench or foliar spray, respectively, treatment with 1 mL ([…]) of the culture broth of strain BS-0105 prepared in Production Example 2 was carried out, and a plot on which foliar spray of 2 mL of a 2 ppm solution of Acibenzolar-S-methyl was carried out. As to the inoculation of the pathogenic bacterium (Pseudomonas syringae pv. lachrymans), 5 days after the treatment, a liquid containing the bacterial blight bacterium previously cultured on a potato semisynthetic medium (a decoction consisting of 300 g of potato and 1 L of distilled water, calcium nitrate tetrahydrate 0.5 g, disodium hydrogenphosphate dodecahydrate 2 g, peptone 5 g, sucrose 20 g, powdered agar 15 g) was inoculated on the whole of each leaf by spraying so that the reverse side of the leaf might be mainly treated. Inspection for infection was carried out by counting lesions in each of leaves from second to fourth leaves 8 days after the inoculation with the pathogenic bacterium. The protective value was calculated from the number of the lesions by the following equation to make a comparison with respect to control effect. Protective value={1−(number of lesions on treated plot/number of lesions on untreated plot)}×100

Compound: CSC(=O)c1cccc2nnsc12 [Acibenzolar-S-methyl, S-methyl 1,2,3-benzothiazole-7-carboxylate]
- First true leaf Number of lesions per leaf [1]: 0
- First true leaf Protective value [1]: 100
- Second true leaf Number of lesions per leaf [1]: 5.5
- Second true leaf Protective value [1]: 99
- Relative fluorescence (parsley cultured cells; Evaluation Example 6, elicitor treatment No): 86.9
- Relative fluorescence (parsley cultured cells; Evaluation Example 6, elicitor treatment Yes): 664.8
- Relative fluorescence (parsley cultured cells; Evaluation Example 7, elicitor No): 0.8
- Relative fluorescence (parsley cultured cells; Evaluation Example 7, elicitor Yes): 377.5
- Number of lesions [2]: 5
- Protective value [2]: 96.7
- Number of lesions per leaf [3]: 0 b
- Protective value [3]: 100
- Disease severity [4]: 9.4
- Protective value [4]: 75.6
- Protective value Average [5]: 78.5
- Protective value Fourth leaf [5]: 66.7
- Protective value Second leaf [5]: 100.0
- Protective value Third leaf [5]: 68.8
